Data as given in patent US20250099433A1, “COMPOSITION AND METHOD FOR TREATMENT OF GRAM NEGATIVE BACTERIAL INFECTION” (The Research Foundation for the State University of New York, priority 2021, published 2025).
Values after ≈ are worked out from the molar mass of the structure shown. Values joined by “and” are separate entries in the source; they are usually repeats but may differ in a detail not shown here. Equal entries are not always repeated. Where two headings read alike, the source gives them in different places.

Legend:
[1] = system: P. aeruginosa PAO1; experiment: MIC by microbroth dilution, P. aeruginosa PAO1; conditions: for MIC: Pseudomonas aeruginosa, PAO1, read-out: MIC (μM) (PAO1)
[2] = target: paLpxC (Pseudomonas aeruginosa (strain ATCC 15692 / DSM 22644 / CIP 104116 / JCM 14847 / LMG 12228 / 1C / PRS 101 / PAO1), UniProt P47205); experiment: biochemical; format: binding; conditions: for tR (min) Fluorescence assay: tR = 1/koff; for kon: read-out: Kon (μM^−1s^−1)
paLpxC, sequence (P47205 1-299): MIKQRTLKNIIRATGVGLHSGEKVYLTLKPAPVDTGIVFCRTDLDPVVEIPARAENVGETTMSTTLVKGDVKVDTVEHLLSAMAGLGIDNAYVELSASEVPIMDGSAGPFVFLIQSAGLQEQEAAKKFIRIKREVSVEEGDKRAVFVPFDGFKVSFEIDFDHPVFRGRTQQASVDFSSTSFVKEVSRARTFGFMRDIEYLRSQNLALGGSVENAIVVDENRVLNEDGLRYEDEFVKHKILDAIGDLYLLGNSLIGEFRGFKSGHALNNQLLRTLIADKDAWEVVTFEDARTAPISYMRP

[3] = system: efflux-pump mutant strain (ΔMexABCDXY) (paEP); experiment: MIC by microbroth dilution, efflux-pump mutant P. aeruginosa; conditions: for MIC: Pseudomonas aeruginosa, read-out: MIC (μM) (paEP)
Description: Bacterial Strains. […] The efflux-pump deficient P. aeruginosa strain (ΔMexABCDXY), N150, was derived from PAO1.
Minimum Inhibitory Concentration (MIC) Measurements.

[4] = 37° C., fluorescence competition

Row | SMILES | MIC [1] [µM] | Ki [2, 4] [pM] | tR (min) Fluorescence assay ([2]; 37° C.) | koff ([2]; read-out: Koff (s^−1)) [s⁻¹] | kon [2] [µM⁻¹ s⁻¹] | MIC [3] [µM] | residence time fold longer than 1 ([2]; fluorescence assay, 37° C.) [fold] | binding to paLpxC (Kon, Koff, tR, Ki) [2, 4] | MIC (μM) (PAO1) ([1]; wild-type P. aeruginosa PAO1) [µM] | Kon [2, 4] [M⁻¹ s⁻¹] | koff [2, 4] [s⁻¹] | MIC (μM) (paEP) ([3]; efflux-pump mutant ΔMexABCDXY) [µM]
1 | CC(CCn1ccc(-c2ccc(-c3cn(Cc4ccncn4)nn3)cc2)cc1=O)(C(=O)NO)S(C)(=O)=O (racemic) [PT916, N-hydroxy-2-methyl-2-(methylsulfonyl)-4-(2-oxo-4-(4-(1-(pyrimidin-4-ylmethyl)-1H-1,2,3-triazol-4-yl)phenyl)pyridin-1(2H)-yl)butanamide] | 50 (≈ 26.2 µg/mL) | 4.2 ± 2.2 | 102.7 ± 20.2 min | 0.00017 ± 3e-05 | 44.3 ± 14.5 | 3.12 (≈ 1.64 µg/mL) |  |  |  |  |  | 
2 | CC(CCn1ccc(-c2ccc(-c3cn(Cc4cccnc4)nn3)cc2)cc1=O)(C(=O)NO)S(C)(=O)=O (racemic) [PT917, N-hydroxy-2-methyl-2-(methylsulfonyl)-4-(2-oxo-4-(4-(1-(pyridin-3-ylmethyl)-1H-1,2,3-triazol-4-yl)phenyl)pyridin-1(2H)-yl)butanamide] |  | 3.2 ± 0.2 | 121.3 ± 4.4 min | 0.00014 ± 1e-05 | 42.8 ± 1.3 |  | ~3 |  |  |  |  | 
3 | CC(CCn1ccc(-c2ccc(-c3cn(Cc4ccc([N+](=O)[O-])cc4)nn3)cc2)cc1=O)(C(=O)NO)S(C)(=O)=O (racemic) [PT918, N-hydroxy-2-methyl-2-(methylsulfonyl)-4-(4-(4-(1-(4-nitrobenzyl)-1H-1,2,3-triazol-4-yl)phenyl)-2-oxopyridin-1(2H)-yl)butanamide] | 6.25 (≈ 3.54 µg/mL) | 7 ± 1 | 78.5 ± 8.4 min | 0.00021 ± 2e-05 | 30.7 ± 0.1 | 0.1 (≈ 0.0567 µg/mL) |  |  |  |  |  | 
4 | CC(CCn1ccc(-c2ccc(C(=O)NCc3ccccc3)cc2)cc1=O)(C(=O)NO)S(C)(=O)=O (racemic) [PT923, N-benzyl-4-(1-(4-(hydroxyamino)-3-methyl-3-(methylsulfonyl)-4-oxobutyl)-2-oxo-1,2-dihydropyridin-4-yl)benzamide] | 25 (≈ 12.4 µg/mL) | 274 ± 76.6 | 8.0 ± 1.2 min | 0.0021 ± 0.0003 | 23.8 ± 18.8 | 3.12 (≈ 1.55 µg/mL) |  |  |  |  |  | 
5 | CC(CCn1ccc(-c2ccc(NC(=O)Cc3ccccc3)cc2)cc1=O)(C(=O)NO)S(C)(=O)=O (racemic) [PT924, N-hydroxy-2-methyl-2-(methylsulfonyl)-4-(2-oxo-4-(4-(2-phenylacetamido)phenyl)pyridin-1(2H)-yl)butanamide] | 50 (≈ 24.9 µg/mL) | 95.4 ± 16.2 | 4.0 ± 1.0 min | 0.0043 ± 0.0009 | 44.8 ± 5.4 | 3.12 (≈ 1.55 µg/mL) |  |  |  |  |  | 
6 | C[C@@H](O)C(NC(=O)c1ccc(-c2cn(Cc3ccccc3)nn2)cc1)C(=O)NO (stereo partly drawn) [PT903, 4-(1-benzyl-1H-1,2,3-triazol-4-yl)-N-((3R)-3-hydroxy-1-(hydroxyamino)-1-oxobutan-2-yl)benzamide] | > 50 |  |  |  |  | > 12.5 |  | No binding was observed |  |  |  | 
7 | CC(CCn1ccc(-c2ccc(N)cc2)cc1=O)(C(=O)NO)S(C)(=O)=O (centres unmarked) [PT919] |  | 4 ± 3 | 121.15 ± 30 min |  |  |  |  |  | 12.5 (≈ 4.74 µg/mL) | 6.427e+07 ± 5.976e+07 | 0.000143 ± 0.00003 | 0.78 (≈ 0.296 µg/mL)
8 | COc1ccc(-c2ccc(CNC3(C(=O)NO)CCS(=O)(=O)CC3)cc2F)cc1 [PT921, 4-(((2-fluoro-4′-methoxy-[1,1′-biphenyl]-4-yl)methyl)amino)-N-hydroxytetrahydro-2H-thiopyran-4-carboxamide 1,1-dioxide] | 0.8 (≈ 0.338 µg/mL) | 14.4 ± 2.5 | 34.3 ± 1.0 min | 0.00049 ± 1e-05 | 34.5 ± 6.3 | 0.1 (≈ 0.0422 µg/mL) |  |  |  |  |  | 
9 | CC(CCn1ccc(-c2ccc(-c3cnnn3Cc3ccccc3)cc2)cc1=O)(C(N)=O)S(C)(=O)=O (centres unmarked) [PT925, 4-(4-(4-(1-benzyl-1H-1,2,3-triazol-5-yl)phenyl)-2-oxopyridin-1(2H)-yl)-2-methyl-2-(methylsulfonyl)butanamide] | 50 (≈ 25.3 µg/mL) |  | 9 min and 9.0 ± 0.9 min |  |  | 12.5 (≈ 6.32 µg/mL) |  |  |  |  |  | 
